Laboratory results taken from patent US6420387B1, “Farnesyl protein transferase inhibiting (imidazol-5-yl) methyl-2-quinolinone derivatives” (Janssen Pharmaceutica N.V., priority 1995, dated 2002).
Where a name gives a salt, the structure may show the parent alone.

Legend:
[1] = target: T1, Human farnesyl protein transferase (Homo sapiens, UniProt P49354+P49356); experiment: In vitro assay for inhibition of farnesyl protein transferase (scintillation proximity assay); format: biochemical; conditions: concentration producing 50% inhibition of enzyme activity; [3H]-farnesylpyrophosphate and biotinylated lamin B peptide substrates, 60 min at 37° C.
T1 construct: grown as monolayer cell cultures were used as a source of human enzyme; endogenous in cells; host or cells: KHOS (Kirsten virus transformed human osteosarcoma) cells, grown as solid tumors in nude mice or as monolayer cultures; 30-50% ammonium sulfate fraction, then Q Fast Flow Sepharose
Method: Human farnesyl protein transferase was prepared essentially as described (Y. Reiss et al., Methods: A Companion to Methods in Enzymology vol 1, 241-245, 1990). Kirsten virus transformed human osteosarcoma (KHOS) cells (American Type Culture Collection, Rockville, Md., USA) grown as solid tumors in nude mice or grown as monolayer cell cultures were used as a source of human enzyme. Briefly, cells or tumors were homogenized in buffer containing 50 mM Tris, 1 mM EDTA, 1 mM EGTA and 0.2 mM phenylmethylsulfonylfluoride (pH 7.5). The homogenates were centrifuged 28,000×g for 60 min and the supernatants collected. A 30-50% ammonium sulfate fraction was prepared, and the resulting precipitate was resuspended in a small (10 to 20 ml) volume of dialysis buffer containing 20 mM Tris 1 mM dithiothreitol and 20 μM ZnCl2. The ammonium sulfate fraction was dialyzed overnight against two changes of the same buffer. The dialyzed material was applied to a 10×1 cm Q Fast Flow Sepharose (Pharmacia LKB Biotechnology Inc., Piscataway, N.J., USA) which had been preequilibrated with 100 ml of dialysis buffer supplemented with 0.05 M NaCl. The column was washed with an additional 50 ml of dialysis buffer plus 0.05 M NaCl followed by a gradient from 0.05 M to 0.25 M NaCl prepared in dialysis buffer. The enzyme activity was eluted with a linear gradient of 0.25 to 1.0 M NaCl prepared in the dialysis buffer. Fractions containing 4 to 5 ml volumes of column eluate were collected and analyzed for farnesyl protein transferase activity. Fractions with enzyme activity were pooled and supplemented with 100 μM ZnCl2. Enzyme samples were stored frozen at −70° C.
The activity of farnesyl protein transferase was measured using the Farnesyl Transferase [^3H] Scintillation Proximity Assay (Amersham International plc., England) under the conditions specified by the manufacturer. To assay for inhibitors of the enzyme, 0.20 μCi of the [^3H]-famesylpyrophosphate substrate and the biotinylated lamin B peptide substrate (biotin-YRASNRSCAIM) were mixed with test compounds in a reaction buffer consisting of 50 mM HEPES, 30 mM MgCl2, 20 mM KCl, 5 mM dithiothreitol, 0.01% Triton X-100. Test compounds were delivered in a 10 μl volume of dimethylsulfoxide (DMSO) to achieve concentrations of 1 and 10 μg/ml in a final volume of 100 μl. The reaction mixture was warmed to 37° C. The enzyme reaction was started by adding 20 μl of diluted human farnesyl protein transferase. Sufficient enzyme preparation was added to produce between 4000 to 15000 cpm of reaction product during the 60 min of reaction incubation at 37° C. Reactions were terminated by the addition of STOP/scintillation proximity bead reagent (Amersham). The reaction product [^3H]-farnesyl-(Cys)-biotin lamin B peptide was captured on the streptavidin linked scintillation proximity bead. The amount of [^3H]-farnesyl-(Cys)-biotin lamin B peptide synthesized in the presence or absence of test compounds was quantified as cpm by counting on a Wallac Model 1480 Microbeta Liquid Scintillation Counter. The cpm of product was considered to be farnesyl protein transferase activity. The protein farnesyl transferase activity observed in the presence of test compound was normalized to farnesyl transferase activity in the presence of 10% DMSO and expressed as per cent inhibition. […] The effects of test compounds in these studies were calculated as IC50 (concentration of test compound producing 50% inhibition of enzyme activity) using the LGICV50 computer program written by the Science Information Division of R. W. Johnson Pharmaceutical Research Institute (Spring House, Pa., USA) on a VAX computer.

[2] = test system: NIH 3T3 cells transformed by the T24 activated human H-ras gene; experiment: Ras-transformed cell phenotype reversion assay; format: cell-based, mouse; conditions: NIH3T3; cell counts after 72 hours proliferation, corrected for initial input of 200,000 cells
Description: Insertion of activated oncogenes such as the mutant ras gene into mouse NIH 3T3 cells converts the cells to a transformed phenotype. The cells become tumorigenic, display anchorage independent growth in semi-solid medium and lose contact inhibition. Loss of contact inhibition produces cell cultures which no longer form uniform monolayers. Rather, the cells pile up into multicellular nodules and grow to very high saturation densities in plastic tissue culture dishes. Agents such as protein farnesyl transferase inhibitors which revert the ras transformed phenotype restore the uniform monolayer growth pattern to cells in culture. This reversion is easily monitored by counting the number of cells in tissue culture plates. Transformed cells will achieve higher cell numbers than cells which have reverted to an untransformed phenotype. Compounds which revert the transformed phenotype should produce antitumor effects in tumors bearing ras gene mutations.
Compounds are screened in tissue culture in NIH 3T3 cells transformed by the T24 activated human H-ras gene. Cells are seeded at an initial density of 200,000 cells per well (9.6 cm^2 surface area) in six-well cluster tissue culture plates. Test compounds are immediately added to 3.0 ml cell growth medium in a 3.0 μl volume of DMSO, with a final concentration of DMSO in the cell growth medium of 0.1%. The test compounds are run at concentrations of 5, 10, 50, 100, and 500 nM along with a DMSO treated vehicle control. (In case a high activity is observed at 5 nM, the test compound is tested at even lower concentrations.) The cells are allowed to proliferate for 72 hours. Then the cells are detached in 1.0 ml trypsin-EDTA cell dissociation medium and counted on a Coulter particle counter.
Cell numbers expressed as cells per well are measured using a Coulter Particle Counter.
All cell counts were corrected for the initial cell input density by subtracting 200,000.
Control cell counts=[cell counts from cells incubated with DMSO vehicle −200,000].
Test compound cell counts=[cell counts from cells incubated with test compound −200,000]. [formula]
IC50 (i.e. the test compound concentration required to inhibit enzyme activity by 50%) is calculated if sufficient data are available, summarized in table 11.

[3] = test system: T24 activated human H-ras gene transformed NIH 3T3 fibroblast cells (T24 cells); experiment: Farnesyl protein transferase inhibitor secondary tumor model; format: in vivo; conditions: nude mice with subcutaneous T24 cell tumors, 15 days of treatment
Description: The enzyme farnesyl protein transferase catalyzes the covalent attachment of a farnesyl moiety derived from farnesyl pyrophosphate to the oncogene product p21^ras. This directs p21^ras to attach to plasma membranes. Once attached to plasma membranes, mutant or oncogenic forms of p21^ras will provide a signal for the transformation and uncontrolled growth of malignant tumor cells. Therefore, inhibitors of protein farnesyl transferase will prevent the membrane attachment of p21^ras and inhibit growth of ras-transformed tumors.
Nude mice are inoculated with 1×10^6 of T24 activated human H-ras gene transformed NIH 3T3 fibroblast cells (T24 cells), subcutaneously in the inguinal region. After three days to allow tumors to become established, treatment with test compounds is begun via the oral route. The test compounds are dissolved in a 20% β-cyclodextrin in 0.1 N HCl solution and administered orally as 0.1 ml of compound solution per 10 g mouse body weight. Routinely used doses are 6.25, 12.5 and 25 mg/kg. Body weights and tumor sizes are monitored during the ensuing 15 days of treatment. At the end of treatment, animals are sacrificed and tumors are weighed.
The “mean vehicle treated tumor weight” is defined as the mean tumor weight from 10 to 15 mice […].
The “mean tumor weight” is defined as the mean tumor weight from 10 to 15 mice […]. [formula]

Compound `COC(c1ccc(Cl)cc1)(c1ccc2c(c1)c(-c1cccc(Cl)c1)cc(=O)n2C)c1cncn1C` (racemic) (hydrate or solvate) [Compound 4, (±)-4-(3-chlorophenyl)-6-[(4-chlorophenyl)methoxy(1-methyl-1H-imidazol-5-yl)methyl]-1-methyl-2(1H)-quinolinone ethanedioate(1:1).dihydrate] has a melting point of 154.6 °C.
For `Cn1cncc1C(c1ccc(Cl)cc1)c1ccc2c(c1)c(-c1cccc(Cl)c1)cc(=O)n2C` (racemic) (hydrate or solvate) [Compound 5, (±)-4-(3-chlorophenyl)-6-[(4-chlorophenyl)(1-methyl-1H-imidazol-5-yl)methyl]-1-methyl-2(1H)-quinolinone ethanedioate(1:1).mono-hydrate], the melting point was 157.4 °C.
With `Cn1cncc1C(c1ccc(Cl)cc1)c1ccc2c(c1)c(-c1ccccc1)cc(=O)n2C` (racemic) [Compound 2, (±)-6-[(4chlorophenyl)(1-methyl-1H-imidazol-5-yl)methyl]-1-methyl-4-phenyl-2(1H)-quinolinone] the melting point was 96.8 °C and the IC50 [1] was 8 nM.
Compound `Cn1cncc1C(O)(c1ccc(Cl)cc1)c1ccc2c(c1)c(-c1cccc(Cl)c1)cc(=O)n2C` (racemic) [Compound 3, (±)-4-(3-chlorophenyl)-6-[(4-chlorophenyl)hydroxy(1-methyl-1H-imidazol-5-yl)methyl]-1-methyl-2(1H)-quinolinone] has a melting point of 233.6 °C and an IC50 [1] of 1.7 nM.
`CCCCn1cncc1C(O)(c1ccc(Cl)cc1)c1ccc2c(c1)c(-c1cccc(Cl)c1)cc(=O)n2C` (racemic) [Compound 9, (±)-4-(3-chlorophenyl)-6-[(1-butyl-1H-imidazol-5-yl)(4-chlorophenyl)hydroxymethyl]-1-methyl-2(1H)-quinolinone] showed a melting point of 174.6 °C.
`Cn1cncc1C(C)(c1ccc(Cl)cc1)c1ccc2c(c1)c(-c1cccc(Cl)c1)cc(=O)n2C` (racemic) [Compound 12, (±)-4-(3-chlorophenyl)-6-[1-(4-chlorophenyl)-1-(1-methyl-1H-imidazol-5-yl)ethyl]-1-methyl-2(1H)-quinolinone.ethanedioate (1:1)] showed an IC50 [2] of 66 nM, a melting point of 203.9 °C and an IC50 [1] of 4.2 nM.
For `Cn1cncc1C(N)(c1ccc(Cl)cc1)c1ccc2c(c1)c(-c1cccc(Cl)c1)cc(=O)n2C` (racemic) [Compound 14, (±)-6-[amino(4-chlorophenyl)(1-methyl-1H-imidazol-5-yl)methyl]-4-(3-chlorophenyl)-1-methyl-2(1H)-quinolinone], the “% reduction final tumor weight at a dose of 25 mg/kg bid, po” value (from here on “% reduction final tumor weight at a dose”) [3] was 66% and the IC50 [2] was 3.8 nM.
With `Cn1cncc1C(CC#N)(c1ccc(Cl)cc1)c1ccc2c(c1)c(-c1cccc(Cl)c1)cc(=O)n2C` (racemic) [Compound 25, (±)-4-(3-chlorophenyl)-β-(4-chlorophenyl)-1,2-dihydro-1-methyl-β-(1-methyl-1H-imidazol-5-yl)-2-oxo-6-quinolinepropanenitrile] the IC50 [2] was 86 nM, the melting point was 151.3 °C and the IC50 [1] was 2.2 nM.
For `Cn1cnc(C(c2ccc(Cl)cc2)c2ccc3c(c2)c(-c2ccccc2)cc(=O)n3C)c1` (racemic) [Compound 44, (±)-6-[(4-chlorophenyl)(1-methyl-1H-imidazol-4-yl)methyl]-1-methyl-4-phenyl-2(1H)-quinolinone], the melting point was 149.9 °C.
With `CC(=O)NC(c1ccc(Cl)cc1)(c1ccc2c(c1)c(-c1cccc(Cl)c1)cc(=O)n2C)c1cncn1C.O=C(O)C(=O)O` (racemic) [Compound 56, (±)-N-[(4-chlorophenyl)[4-(3-chlorophenyl)-1,2-dihydro-1-methyl-2-oxo-6-quinolinyl](1-methyl-1H-imidazol-5-yl)methyl]acetamide ethanedioate (1:1)] the “% reduction final tumor weight at a dose” value [3] was 42% and the IC50 [2] was 23 nM.
For `CCOc1cccc(-c2cc(=O)n(C)c3ccc(C(O)(c4ccc(Cl)cc4)c4cncn4C)cc23)c1` (stereo not shown) [Compound 34, 6-[(4-chlorophenyl)hydroxy(1-methyl-1H-imidazol-5-yl)methyl]-4-(3-ethoxyphenyl)-1-methyl-2(1H)-quinolinone], the “% reduction final tumor weight at a dose” value [3] was 56%, the IC50 [2] was 3 nM and the IC50 [1] was 1.6 nM.
For `CCOc1cccc(-c2cc(=O)n(C)c3ccc(C(c4ccc(Cl)cc4)c4cncn4C)cc23)c1` (stereo not shown) [Compound 35, 6-[(4-chlorophenyl)(1-methyl-1H-imidazol-5-yl)methyl]-4-(3-ethoxyphenyl)-1-methyl-2(1H)-quinolinone monohydrochloride.monohydrate], the “% reduction final tumor weight at a dose” value [3] was 39%, the IC50 [2] was 3.4 nM and the IC50 [1] was 0.39 nM.
`CCc1cccc(-c2cc(=O)n(C)c3ccc(C(N)(c4ccc(Cl)cc4)c4cncn4C)cc23)c1` (stereo not shown) [Compound 98] showed an IC50 [2] of 15 nM and an IC50 [1] of 6.4 nM.
With `CCCc1cccc(-c2cc(=O)n(C)c3ccc(C(N)(c4ccc(Cl)cc4)c4cncn4C)cc23)c1` (stereo not shown) [Compound 100] the IC50 [2] was 11 nM and the IC50 [1] was 0.52 nM.
